The text below walks through data of patent US8871767B2, “2-arylimidazo[1,2-B]pyridazine, 2-phenylimidazo[1,2-A]pyridine, and 2-phenylimidazo[1,2-A]pyrazine derivatives” (Hengrui (USA) Ltd., priority 2010, dated 2014).

Like-named read-outs stand apart in the source and are kept apart here.

Experiment [1] concerns Hedgehog pathway activation on 10T1/2/Smo#3 cells (C3H10T1/2 cells transfected with human Smoothened receptor). Kind of experiment: Hedgehog pathway activation on 10T1/2/Smo#3 cells measured by ALP activity. The settings on record: Mus musculus, C3H 10T1/2, 10T1/2/Smo#3 cells. The class given is cell-based. In outline:
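Inhibition of alkaline phosphatase induction, read fluorometrically from 4-methylumbelliferyl phosphate conversion, gave IC50 values; CellTiter-Blue tracked viability in parallel. Cells were the human Smo-transfected 10T1/2/Smo#3 pool, stimulated by 10-20% hShh conditioned medium or the Smo agonist SAG (500 nM).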

Experiment [2] deals with Hedgehog pathway activation (GLi-luciferase reporter) in Shh Light II reporter cells. In words: Hedgehog pathway activation on Shh Light II reporter cells measured by luciferase activity. It is filed as cell-based. The settings on record: Mus musculus, Shh Light II. In outline:
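Shh Light II reporter cells carrying a hedgehog-responsive GLi-luciferase reporter were stimulated either with 500 nM SAG, a direct Smoothened agonist, or with conditioned media containing human Sonic Hedgehog (hShh). Test compounds were evaluated for blocking this pathway activation, quantified by luciferase activity. Cell viability was monitored in parallel with the Celltiter-Blue® assay.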

The mark [3] stands for this setting: measured by ALP activity, read-out: ALP (IC50, inhibition of Hedgehog pathway activation).
Setting [4] is: hShh activation, read-out: Shh (IC50, inhibition of Hedgehog pathway activation).
Setting [5] is: hShh activation, ALP activity, read-out: 10T1/2/Smo#3 ALP activity (hShh Activation).
[6] abbreviates: SAG activation (500 nM SAG), read-out: Shh Light II luciferase activity (SAG activation).
[7] abbreviates: hShh activation, read-out: Shh Light II luciferase activity (hShh activation).

Turning to `CCOC(=O)COc1ccc(C(F)(F)F)c(-c2ccc3nc(-c4ccc(C)c(NC(=O)C(C)(C)C)c4)cn3n2)c1` [Example 477, ethyl 2-(3-(2-(4-methyl-3-pivalamidophenyl)imidazo[1,2-b]pyridazin-6-yl)-4-(trifluoromethyl)phenoxy)acetate], the IC50 came to 521 nM in experiment [1] (setting [3]) and 247 nM in experiment [2] (setting [4]).
Take `COC(=O)CCCCCCC(=O)Nc1ccc(-c2ccc3nc(-c4ccc(C)c(NC(=O)C(C)(C)C)c4)cn3n2)cc1` [compound 556]: the IC50 in experiment [1] (setting [3]) worked out at 737 nM; in experiment [2] (setting [4]), 395 nM.
On to `Cc1c(-c2ccccc2)nc2ccc(N3CCN(Cc4cccnc4)CC3)nn12` [Example 161, 3-methyl-2-phenyl-6-(4-(pyridin-3-ylmethyl)piperazin-1-yl)imidazo[1,2-b]pyridazine], for which the IC50 in experiment [1] (setting [5]) is 300 to 3000 nM; in experiment [1] (setting [3]), 404 nM; in experiment [2] (setting [6]), 300 to 3000 nM; in experiment [2] (setting [4]) it was 911 nM; in experiment [2] (setting [7]) it was 300 to 3000 nM.
Consider `COc1ccc(-c2ccc3nc(-c4ccc(C(F)(F)F)c(NC(=O)C(C)(C)C)c4)cn3n2)cc1` [Example 244, N-(5-(6-(4-methoxyphenyl)imidazo[1,2-b]pyridazin-2-yl)-2-(trifluoromethyl)phenyl)pivalamide], for which the IC50 in experiment [1] (setting [3]) stood at 1630 nM; in experiment [2] (setting [4]), 308 nM.
For `Cc1ccc(-c2cn3nc(-c4ccccc4F)ccc3n2)cc1NC(=O)C(C)(C)C` [Example 220, N-(5-(6-(2-fluorophenyl)imidazo[1,2-b]pyridazin-2-yl)-2-methylphenyl)pivalamide], in that order: 28 nM and 52 nM.
For `CC(C)(C)C(=O)Nc1cc(-c2cn3nc(N4CC[C@@H](O)C4)ccc3n2)ccc1Cl` [Example 643, (R)—N-(2-chloro-5-(6-(3-hydroxypyrrolidin-1-yl)imidazo[1,2-b]pyridazin-2-yl)phenyl)pivalamide], in that order: 23 nM and 146 nM.
For `CC(C)(C)OC(=O)NC1CCN(c2ccc3nc(-c4ccc(C(F)(F)F)c(NC(=O)C(C)(C)C)c4)cn3n2)C1` (stereo not shown) [Example 297, tert-butyl 1-(2-(3-pivalamido-4-(trifluoromethyl)phenyl)imidazo[1,2-b]pyridazin-6-yl)pyrrolidin-3-ylcarbamate], in that order: 463 nM and 452 nM.
Take `Cc1ccc(-c2cn3nc(-c4ccc(C(=O)O)cc4Cl)ccc3n2)cc1NC(=O)C(C)(C)C` [compound 540]: the IC50 in experiment [1] (setting [3]) is 891 nM; in experiment [2] (setting [4]), 447 nM.
In the same order, the values of `COc1ccc2nc(-c3ccc(C)c(NC(=O)c4cccc(C(F)(F)F)c4)c3)cn2n1` [Example 100, N-(5-(6-methoxyimidazo[1,2-b]pyridazin-2-yl)-2-methylphenyl)-3-(trifluoromethyl)benzamide] are 1060 nM and 1090 nM.
Regarding `Cc1ccc(-c2cn3nc(-c4ccc(/C(N)=N/O)cc4C(F)(F)F)ccc3n2)cc1NC(=O)C(C)(C)C` [compound 511, N-(5-(6-(4-(N′-hydroxycarbamimidoyl)-2-(trifluoromethyl)phenyl)imidazo[1,2-b]pyridazin-2-yl)-2-methylphenyl)pivalamide], the IC50 in experiment [1] (setting [5]) is less than 300 nM; in experiment [1] (setting [3]), 2 nM; in experiment [2] (setting [6]), less than 300 nM; in experiment [2] (setting [4]), 10 nM; in experiment [2] (setting [7]), less than 300 nM.
For the compound `CC(CC(=O)Nc1cc(-c2cn3nc(-c4cccnc4C(F)(F)F)ccc3n2)ccc1Cl)C(F)(F)F` (stereo not shown) [Example 666, N-(2-chloro-5-(6-(2-(trifluoromethyl)pyridin-3-yl)imidazo[1,2-b]pyridazin-2-yl)phenyl)-4,4,4-trifluoro-3-methylbutanamide], the IC50 in experiment [1] (setting [3]) worked out at 527 nM; in experiment [2] (setting [4]) it was 64 nM.
